# Measurements: PubChem BioAssay (NCI)
#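 Grown in 96-well plates, cells were treated for 48 hours with each compound at five concentrations. Insufficient inhibition: endpoint recorded as highest concentration tested. Abbreviation: GI50, concentration required for 50% inhibition of growth. TGI denotes the concentration required for complete inhibition of growth.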
# Tests used:
# Assay in all cases: inhibition of tumour cell growth, NCI panel, 48 h
# DLD-1 colon = tested on: DLD-1 colon
# DMS 273 small cell lung = tested on: DMS 273 small cell lung
# HOP-18 NSCLC = tested on: HOP-18 NSCLC
# KM20L2 colon = tested on: KM20L2 colon
# LXFL 529 NSCLC = tested on: LXFL 529 NSCLC
# M19-MEL melanoma = tested on: M19-MEL melanoma
# MDA-N = tested on: MDA-N
# DMS 114 small cell lung = tested on: DMS 114 small cell lung
# RXF-631 renal = tested on: RXF-631 renal
SMILES,GI50 (DLD-1 colon) [µM],TGI (DLD-1 colon) [µM],GI50 (DMS 273 small cell lung) [µM],TGI (DMS 273 small cell lung) [µM],GI50 (HOP-18 NSCLC) [µM],TGI (HOP-18 NSCLC) [µM],GI50 (KM20L2 colon) [µM],TGI (KM20L2 colon) [µM],GI50 (LXFL 529 NSCLC) [µM],TGI (LXFL 529 NSCLC) [µM],GI50 (M19-MEL melanoma) [µM],TGI (M19-MEL melanoma) [µM],TGI (MDA-N) [µM],TGI (DMS 114 small cell lung) [µM],TGI (RXF-631 renal) [µM],GI50 (DMS 114 small cell lung) [µM],GI50 (RXF-631 renal) [µM]
CC(=O)[CH-]C(=O)c1ccccc1.CC(=O)[CH-]C(=O)c1ccccc1.C[C@]12CCC(=O)C=C1CC[C@@H]1C2CC[C@@]2(C)C1CC[C@@H]2[O-].C[C@]12CCC(=O)C=C1CC[C@@H]1C2CC[C@@]2(C)C1CC[C@@H]2[O-].Cl.[Ti+4] (stereo not given in full),18.3,45.9,21.2,69.5,28.6,91.4,13.1,34.1,24.3,87.3,23.7,96.9,–,–,–,–,–
CS(=O)(=O)CC(=O)c1ccccc1,–,–,–,–,–,–,–,–,–,–,–,–,> 100,–,–,–,–
OCc1c[te]c(-c2ccccc2)c1,–,> 100,–,> 100,–,–,–,> 100,–,> 100,–,> 100,–,91.7,> 100,–,–
CCNC(=O)O/N=C1\CCC2[C@@H]3CC=C4C[C@@H](OC5CCCCO5)CC[C@]4(C)C3CC[C@]12C (stereo not given in full),–,> 100,–,–,–,4.28,–,12.4,–,2.43,–,3.6,–,–,22.4,–,–
N/N=c1\c2ccccc2c2cc3c(cc12)/c(=N/N)c1ccccc13,–,> 100,–,> 100,–,> 100,–,> 100,–,> 100,–,> 100,–,> 100,> 100,–,–
C=C(C(=C)P(=S)(c1ccccc1)c1ccccc1)P(=S)(c1ccccc1)c1ccccc1,–,–,–,> 100,–,> 100,–,> 100,–,> 100,–,> 100,–,> 100,–,–,–
CC#CC1C2CCCC1(CSc1ccccc1)NC(=O)O2 (stereo not given),–,> 100,–,> 100,–,> 100,–,> 100,–,> 100,–,> 100,–,> 100,> 100,–,–
O=c1ssc(Cl)c1Cl,–,–,–,–,–,–,–,–,–,–,–,–,> 10,–,–,–,–
CC(C)(C)c1c2c(c(C(C)(C)C)c3c1OCN(Cc1ccccc1)C3)OCN(Cc1ccccc1)C2,–,–,–,–,–,–,–,–,–,–,–,–,30.3,–,–,–,–
CC(=O)Nc1ccc(COC(O)CN2CCCCC2)cc1[N+](=O)[O-] (stereo not given),–,–,–,–,–,–,–,–,–,–,–,–,> 100,–,–,–,–
COc1ccc2nc3cc(Cl)ccc3c(Sc3ccc([N+](=O)[O-])cc3)c2c1,> 100,> 100,> 100,> 100,> 100,> 100,> 100,> 100,> 100,> 100,> 100,> 100,–,> 100,> 100,> 100,> 100
CN1CCN(C)C12C=CC=CC21CC1,–,> 100,–,> 100,–,> 100,–,> 100,–,–,–,> 100,–,> 100,> 100,–,–
Cc1ccccc1-n1c2nc(=O)n(C)c(=O)c-2nc2ccccc21,–,42.4,–,26.7,–,24.2,–,21.9,–,26.3,–,3.84,–,18.3,36.3,–,–
COc1ccccc1NC(=O)c1nc2ccc([N+](=O)[O-])cc2nc1C,–,> 100,–,> 100,–,39.9,–,> 100,–,> 100,–,> 100,–,> 100,–,–,–
Cc1ccc2c(c1)S(=O)(=O)c1ccc3ccccc3c1N2,–,–,–,–,–,–,–,–,–,–,–,–,> 100,–,–,–,–
